Experimental data taken from patent US20130029983A1, “AMINOTHIENOPYRIDAZINE INHIBITORS OF TAU ASSEMBLY” (priority 2009, published 2013).
Read-outs that look alike come from different tables or passages of the source.

Legend:
K18PL tau [1] = biological target: T1, K18PL tau (Homo sapiens, UniProt P10636, P618L); assay: K18PL tau centrifugation (sedimentation) assay, SDS-PAGE densitometry; type: biochemical; conditions: K18PL tau centrifugation assay
T1 construct: (K18PL; amino acids 244-369); made in house
Experimental: The determination of compound-induced effects on the amount of tau that remains soluble upon centrifugation, and EM visualization of tau species following incubation with test compounds, were as previously described (Crowe, A., Ballatore, C., Hyde, E., Trojanowski, J. Q., and Lee, V. M. Y. (2007) Biochemical and Biophysical Research Communications 358, 1-6).
(§1) The solubility of test compounds in the sodium acetate buffer used for subsequent fibrillization reactions was determined by turbidimetric measurements. Compounds were then evaluated in a heparin-induced tau assembly assay, in which the fibrillization of the truncated K18 tau fragment (comprised of four MT-binding repeats) bearing the P301L mutation (K18PL) found in FTDP-17, was monitored by thioflavine-T (ThT) binding and fluorescence (FIG. 3A). (Crowe, A.; et al., Identification of aminothienopyridazine inhibitors of tau assembly by quantitative high-throughput screening. Biochemistry 2009, 48, 7732-45.) The inhibitory activity of test compounds was then confirmed with an orthogonal sedimentation assay in which compound-treated fibrillizing mixtures were centrifuged and quantitation of K18PL tau in the soluble and insoluble fraction was performed by densitometric analyses of SDS-PAGE (FIG. 3B). […] Thus, the tau fibrillization assay was repeated in which both DMSO- and compound-treated mixtures were initially centrifuged for 30 min. prior to incubation (i.e., at time zero of the fibrillization reaction) to remove any pelletable material.

K18PL tau [2] = biological target: T1, K18PL tau; assay: Heparin-induced K18PL tau fibrillization assay monitored by ThT fluorescence; type: biochemical; conditions: for inhibition at 80 µM / Tau ThT Assay % Inhib.: highest tested concentration (80 μM); for inhibition at 80 µM: read-out: Tau ThT Assay % Inhib.; for IC50 / Tau ThT Assay Log IC50: logarithm of IC50, K18PL tau ThT fluorescence inhibition; for IC50: read-out: Tau ThT Assay Log IC50 (converted)
Experimental: Tau fibril formation reactions were performed essentially as described (Crowe, A., Ballatore, C., Hyde, E., Trojanowski, J. Q., and Lee, V. M. Y. (2007) Biochemical and Biophysical Research Communications 358, 1-6). K18PL (2 μl of a 30 μM stock that also contained 0.24 μM Alexa Red-labeled K18PL) was dispensed into black 1536-well plates (Grenier) using a solenoid-based dispenser. Following transfer of 23 nL of test compound or DMSO vehicle by a pin tool from compound library plates, 2 μl/well of 40 μM heparin in reagent buffer was dispensed and the plate was centrifuged for 15 s at 1000 rpm in a table-top centrifuge. The fibrillization reaction proceeded for 6 hours at 37° C. in a humidified incubator (Kalypsys).
K18PL fibril formation was quantified with a ThT assay as previously described (Crowe, A., Ballatore, C., Hyde, E., Trojanowski, J. Q., and Lee, V. M. Y. (2007) Biochemical and Biophysical Research Communications 358, 1-6). Briefly, 1 μl/well of 62.5 μM ThT (Sigma) in 100 mM glycine, pH 8.5 (12.5 μM final concentration) was dispensed into 1536-well plates after completion of the fibrillization reaction and incubated at room temperature for 1 hour. Plates were read on an Envision fluorescence plate reader with an excitation of 450 nm and an emission setting of 510 nm.
Compound effects on tau assembly were determined for the ThT and FP assays using the formula 1−(Fcompound− FDMSO)/( Fcontrol− FDMSO), where Fcontrol denotes the median plate fluorescence values (ThT assay) or mP values (FP assay) of the non-fibrillizing K18 KD control wells, FDMSO denotes the median value of the DMSO control wells, and Fcompound denotes the compound well values. The resulting values were multiplied by 100 to obtain the percent inhibition of tau fibril formation.
as §1

Aβ(1-42) = biological target: T2, Aβ(1-42) (Homo sapiens, UniProt P05067); assay: Aβ(1-42) fibrillization assay (ThT); type: biochemical; conditions: Table 3, highest tested concentration (80 μM); for inhibition at 80 µM: read-out: Aβ42 ThT Assay % Inhib.
T2 construct: Synthetic Aβ(1-42) peptide (rPeptide); purchased rPeptide

[3] = Table 3, NC = not calculated due to insufficient activity

T2 sequence (P05067 672-713 limits assumed): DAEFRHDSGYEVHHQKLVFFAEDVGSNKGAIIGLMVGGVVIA
T1 sequence (P10636 561-686 P618L): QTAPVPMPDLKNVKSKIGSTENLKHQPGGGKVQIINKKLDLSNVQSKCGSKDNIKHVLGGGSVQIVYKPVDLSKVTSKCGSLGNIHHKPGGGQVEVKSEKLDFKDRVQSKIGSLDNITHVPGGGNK

| Structure (SMILES) | Tau Cent. Assay % Soluble (K18PL tau [1]; Table 4) | Tau Cent. Assay % Soluble (K18PL tau [1]; Table 3) | inhibition at 80 µM (Aβ(1-42)) | inhibition at 80 µM (K18PL tau [2]; Table 3) | IC50 (K18PL tau [2]; [3]) | other results |
| --- | --- | --- | --- | --- | --- | --- |
| CCOC(=O)c1nn(-c2ccc(NC)cc2)c(=O)c2c(N)scc12 [CNDR-51358, Ethyl 5-amino-3-(4-(methylamino)phenyl)-4-oxo-3,4-dihydrothieno[3,4-d]pyridazine-1-carboxylate] | 61% | – | – | – | – | inhibition at 80 µM (K18PL tau [2]; Table 4): 76%; IC50 (K18PL tau [2]; Table 4): 3.98 µM; melting point: 211 to 213 °C |
| CCOC(=O)c1nn(-c2ccc(N(C)C)cc2)c(=O)c2c(N)scc12 [CNDR-51359, Ethyl 5-amino-3-(4-(dimethylamino)phenyl)-4-oxo-3,4-dihydrothieno[3,4-d]pyridazine-1-carboxylate] | 70% | – | – | – | – | inhibition at 80 µM (K18PL tau [2]; Table 4): 68%; IC50 (K18PL tau [2]; Table 4): 3.16 µM; melting point: 211 to 213 °C |
| CCOC(=O)c1nn(-c2ccc(Br)cc2)c(=O)c2c(N)scc12 [CNDR-51386, Ethyl 5-amino-3-(4-bromophenyl)-4-oxo-3,4-dihydrothieno[3,4-d]pyridazine-1-carboxylate] | – | – | – | – | – | melting point: 198 to 200 °C |
| CCOC(=O)c1nn(-c2ccccc2C)c(=O)c2c(N)scc12 [CNDR-51424, Ethyl 5-amino-4-oxo-3-(o-tolyl)-3,4-dihydrothieno[3,4-d]pyridazine-1-carboxylate] | 58% | – | – | – | – | inhibition at 80 µM (K18PL tau [2]; Table 4): 82%; IC50 (K18PL tau [2]; Table 4): 1.26 µM |
| CCOC(=O)c1nn(-c2ccccc2Cl)c(=O)c2c(N)scc12 [CNDR-51425, Ethyl 5-amino-3-(2-chlorophenyl)-4-oxo-3,4-dihydrothieno[3,4-d]pyridazine-1-carboxylate] | 61% | – | – | – | – | inhibition at 80 µM (K18PL tau [2]; Table 4): 87%; IC50 (K18PL tau [2]; Table 4): 5.01 µM |
| Nc1scc2c(C(=O)NCCO)nn(-c3ccc(Cl)cc3)c(=O)c12 [CNDR-51433, 5-Amino-3-(4-chlorophenyl)-N-(2-hydroxyethyl)-4-oxo-3,4-dihydrothieno[3,4-d]pyridazine-1-carboxamide] | 77% | – | – | – | – | inhibition at 80 µM (K18PL tau [2]; Table 4): 82%; IC50 (K18PL tau [2]; Table 4): 3.98 µM |
| CCOC(=O)c1nn(-c2ccc(C)cc2C)c(=O)c2c(N)scc12 [CNDR-51434] | 56% | – | – | – | – | Tau ThT Assay % Inhib. (K18PL tau [2]; Table 4): 87%; Tau ThT Assay Log IC50 (K18PL tau [2]; Table 4): −5.7 |
| CCOC(=O)c1nn(-c2ccccc2-c2ccccc2)c(=O)c2c(N)scc12 [CNDR-51435, Ethyl 3-([1,1′-biphenyl]-2-yl)-5-amino-4-oxo-3,4-dihydrothieno[3,4-d]pyridazine-1-carboxylate] | 65% | – | – | – | – | inhibition at 80 µM (K18PL tau [2]; Table 4): 78%; IC50 (K18PL tau [2]; Table 4): 0.794 µM |
| CCOC(=O)c1nn(-c2ccccc2F)c(=O)c2c(N)scc12 [CNDR-51439, Ethyl 5-amino-3-(2-fluorophenyl)-4-oxo-3,4-dihydrothieno[3,4-d]pyridazine-1-carboxylate] | 41% | – | – | – | – | inhibition at 80 µM (K18PL tau [2]; Table 4): 48%; IC50 (K18PL tau [2]; Table 4): 0.794 µM |
| CCN(CC)C(=O)c1nn(-c2ccc(OC)cc2)c(=O)c2c(N)scc12 [CNDR-51443, 5-Amino-N,N-diethyl-3-(4-methoxyphenyl)-4-oxo-3,4-dihydrothieno[3,4-d]pyridazine-1-carboxamide] | 59% | – | – | – | – | inhibition at 80 µM (K18PL tau [2]; Table 4): 75%; IC50 (K18PL tau [2]; Table 4): 7.94 µM |
| CCOC(=O)c1nn(-c2ccccc2)c(=O)c2c(N)scc12 [Compound 5a] | – | 55% | – | – | – | Aβ42 ThT Assay % Inhib. (Aβ(1-42)): −1%; Tau ThT Assay % Inhib. (K18PL tau [2]; Table 3): 80%; Tau ThT Assay Log IC50 (K18PL tau [2]; [3]): −5.2 |
| CCOC(=O)c1nn(-c2ccc(C)c(C)c2)c(=O)c2c(N)scc12 [Compound 5c] | – | 28% | 7% | 48% | – | – |
| CCOC(=O)c1ccc(-n2nc(C(=O)OCC)c3csc(N)c3c2=O)cc1 [Compound 5e] | – | 23% | 4% | 29% | – | – |
| CCOC(=O)c1nn(-c2ccccc2)c(=O)c2c(N)sc(C)c12 [Compound 5f] | – | 4% | 21% | 35% | – | – |
| CCOC(=O)c1nn(-c2ccc(Cl)c(Cl)c2)c(=O)c2c(N)scc12 [Compound 5g] | – | 12% | 6% | 29% | – | – |
| CCOC(=O)c1nn(-c2ccc(C)cc2)c(=O)c2c(N)scc12 [Compound 5h] | – | 35% | 12% | 51% | 126 µM | – |
| Nc1scc2c(C(=O)O)nn(-c3ccccc3)c(=O)c12 [Compound 6a] | – | 84% | 20% | 92% | 7.94 µM | – |
| COc1ccc(-n2nc(C(=O)O)c3csc(N)c3c2=O)cc1 [Compound 6b] | – | 95% | 1% | 94% | 2.51 µM | – |
| Nc1scc2c(C(=O)NCc3ccccc3)nn(-c3ccccc3)c(=O)c12 [Compound 8a] | – | 54% | 27% | 80% | 7.94 µM | – |
| Nc1scc2c(C(=O)N3CCOCC3)nn(-c3ccccc3)c(=O)c12 [Compound 8b] | – | 89% | 0% | 81% | 15.8 µM | – |
| NC(=O)c1nn(-c2ccccc2)c(=O)c2c(N)scc12 [Compound 8c] | – | 89% | 16% | 93% | 6.31 µM | – |
| CCN(CC)C(=O)c1nn(-c2ccc(OC)cc2)c(=O)c2c(N)scc12 [Compound 8d] | – | 99% | 35% | 95% | 10 µM | – |
| CCOC(=O)c1nn(-c2ccc(OC)cc2)c(=O)c2c(NC(=O)Cc3ccccc3)scc12 [Compound 9a] | – | 0% | – | – | – | Tau ThT Assay % Inhib. (K18PL tau [2]; Table 3): 31% |
| CCOC(=O)c1nn(-c2ccccc2)c(=O)c2c(NC(C)=O)scc12 [Compound 9b] | – | 11% | – | 27% | – | – |
| CCOC(=O)c1nn(-c2ccccc2)c(=O)c2c(NC(=O)c3ccccc3)scc12 [Compound 9c] | – | 2% | -7% | 8% | – | – |
| Nc1nn(-c2ccccc2)c(=O)c2c(N)scc12 [Compound 14] | – | 86% | 21% | 92% | 6.31 µM | – |
| Nc1scc2c(CO)nn(-c3ccccc3)c(=O)c12 [Compound 15] | – | 81% | 10% | 91% | 6.31 µM | – |
| CC(=O)Nc1sc(C)c2cnn(-c3ccccc3)c(=O)c12 [Compound 16] | – | 5% | -11% | 11% | – | – |
| COC(=O)c1nn(-c2ccc(F)cc2)c(=O)c2c(N)scc12 [Compound 18] | – | 64% | 29% | 86% | 5.01 µM | – |
| COC(=O)c1nn(-c2cccc(C(F)(F)F)c2)c(=O)c2c(N)scc12 [Compound 19] | – | 41% | – | 66% | 10 µM | – |
